According to paper PMC11202169, “A Novel Fluorescence-Based Microplate Assay for High-Throughput Screening of hSULT1As Inhibitors” (Biosensors, 2024):

Experiments:
hSULT1A1 [1] = biological target: T1, hSULT1A1 (Homo sapiens, UniProt P50225); assay: Fluorescence-based microplate inhibition assay, hSULT1A1-catalyzed HN-241 4-O-sulfation; assay type: biochemical; conditions: test compound 1 μM, HN-241 1 μM, 15 min; for activity at 1 µM: read-out: Residue activity (%) hSULT1A1;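 on all read-outs here: reaction started with 200 µM PAPS at 37 °C, fluorescence read continuously (Ex 350 nm, Em 450 nm), activity expressed relative to DMSO-only control without inhibitor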
T1 construct: 6-histidine tag (N); TEV site (N); made in house; host or cells: Escherichia coli BL21 (DE3), pET29a(+)

hSULT1A2 [2] = biological target: T2, hSULT1A2 (Homo sapiens, UniProt P50226); assay: Fluorescence-based microplate inhibition assay, hSULT1A2-catalyzed HN-241 4-O-sulfation; assay type: biochemical; conditions: test compound 10 μM, HN-241 5 μM, 15 min; for remaining activity at 10 µM: 0.25 h, read-out: Residue activity (%) hSULT1A2
T2 construct: 6-histidine tag (N); TEV site (N); made in house; host or cells: Escherichia coli BL21 (DE3), pET29a(+)

hSULT1A3 = biological target: T3, hSULT1A3 (Homo sapiens, UniProt P0DMM9); assay: Fluorescence-based microplate inhibition assay, hSULT1A3-catalyzed HN-241 4-O-sulfation; assay type: biochemical; conditions: test compound 10 μM, HN-241 10 μM, 15 min; for activity at 10 µM: read-out: Residue activity (%) hSULT1A3
T3 construct: 6-histidine tag (N); TEV site (N); made in house; host or cells: Escherichia coli BL21 (DE3), pET29a(+)

hSULT1A1 [3] = biological target: T1, hSULT1A1; assay: hSULT1As reaction phenotyping assay (HPLC), hSULT1A1; assay type: biochemical; conditions: fluorophore 10 μM, PAPS 200 μM, 1 h, 37 °C
Method: (§1) The incubation system consisted of Tris-HCl buffer (pH 7.4, 50 mM), MgCl2 (5 mM), DTT (200 μM), recombinant hSULT1As (29 pmol), and each fluorophore or 4-HN derivative (10 μM). After pre-incubation at 37 °C for 3 min, the reaction was initiated by adding an excess of PAPS (200 μM). Following 1 h incubation, the reaction was terminated with the addition of an equal volume of ice-cold acetonitrile. After centrifugation at 20,000× g for 20 min at 4 °C, the supernatant was collected for HPLC analysis. The mobile phase consisted of 10 mM aqueous ammonium acetate (A) and acetonitrile (B) at a flow rate of 0.4 mL/min. Gradient elution was performed under the following conditions: 0–2.0 min, 5% B; 2.0–10.0 min, 5–95% B; 10.0−12.0 min, 95% B; 12.0–12.5 min, 95–5% B; and 12.5–15.0 min, 5% B.

hSULT1A2 [4] = biological target: T2, hSULT1A2; assay: hSULT1As reaction phenotyping assay (HPLC), hSULT1A2; assay type: biochemical; conditions: fluorophore 10 μM, PAPS 200 μM, 1 h, 37 °C
Method: as §1

hSULT1As = assay: O-sulfation and spectroscopic changes with hSULT1As (statements for all isoforms together); assay type: biochemical, human; conditions: substrate 10 μM, all tested hSULT1A isozymes
Method: as §1
The spectroscopic changes in these fluorophores following O-sulfation were investigated. The incubation system was the same as that used in Section 2.3. The emission spectra of eight fluorophores in the presence and absence of three hSULT1A isoforms were determined using BioTek Synergy H1.

T2 sequence (P50226 whole entry): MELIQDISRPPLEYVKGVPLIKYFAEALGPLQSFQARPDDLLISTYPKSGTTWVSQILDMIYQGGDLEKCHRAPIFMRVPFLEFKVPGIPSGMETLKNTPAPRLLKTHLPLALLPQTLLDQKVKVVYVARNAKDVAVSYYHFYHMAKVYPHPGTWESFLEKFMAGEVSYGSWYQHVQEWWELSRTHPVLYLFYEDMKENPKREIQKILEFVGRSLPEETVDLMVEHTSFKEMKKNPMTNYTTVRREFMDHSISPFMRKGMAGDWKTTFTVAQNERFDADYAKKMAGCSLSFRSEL
T1 sequence (P50225 whole entry): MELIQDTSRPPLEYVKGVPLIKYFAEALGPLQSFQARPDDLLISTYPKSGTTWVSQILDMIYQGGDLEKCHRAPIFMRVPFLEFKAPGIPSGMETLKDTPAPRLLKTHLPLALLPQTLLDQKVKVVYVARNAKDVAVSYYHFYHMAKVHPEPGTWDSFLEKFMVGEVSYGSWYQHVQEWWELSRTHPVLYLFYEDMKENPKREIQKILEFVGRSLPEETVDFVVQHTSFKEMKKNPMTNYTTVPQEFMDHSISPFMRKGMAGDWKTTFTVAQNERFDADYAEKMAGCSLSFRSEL
T3 sequence (P0DMM9 whole entry): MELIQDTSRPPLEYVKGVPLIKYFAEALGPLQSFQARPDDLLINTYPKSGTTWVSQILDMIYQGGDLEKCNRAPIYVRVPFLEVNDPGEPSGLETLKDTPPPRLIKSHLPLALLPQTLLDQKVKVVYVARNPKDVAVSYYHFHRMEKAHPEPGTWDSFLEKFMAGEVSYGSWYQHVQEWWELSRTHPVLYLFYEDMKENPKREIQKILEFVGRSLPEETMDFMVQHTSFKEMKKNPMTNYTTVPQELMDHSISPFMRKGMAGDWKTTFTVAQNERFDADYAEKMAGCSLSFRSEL

| Molecule | activity at 1 µM (hSULT1A1 [1]) [%] | remaining activity at 10 µM (hSULT1A2 [2]) [%] | activity at 10 µM (hSULT1A3) [%] | Residue activity (%) hSULT1A1 (hSULT1A1 [1]) [%] | Residue activity (%) hSULT1A2 (hSULT1A2 [2]) [%] | Residue activity (%) hSULT1A3 (hSULT1A3) [%] | other results |
| --- | --- | --- | --- | --- | --- | --- | --- |
| O=C1c2c(O)cc(O)cc2OC(c2ccc(O)c(O)c2)C1O (centres unmarked) [Taxifolin] | 3.26 | 41.7 | 59.7 | – | – | – | – |
| COc1c(O)cc2occ(-c3ccc(O)cc3)c(=O)c2c1O [Tectorigenin] | 4.17 | 4.26 | 86.8 | – | – | – | – |
| O=C(O[C@@H]1[C@@H](O)[C@H](Oc2cc(O)c(C(=O)CCc3ccccc3)c(O)c2)O[C@@H]2COC(=O)c3cc(O)c(O)c(O)c3-c3c(cc(O)c(O)c3O)C(=O)O[C@@H]12)c1cc(O)c(O)c(O)c1 [Thonningianin A] | 12 | 3.29 | 17.6 | – | – | – | – |
| CC(C)[C@]12O[C@H]1[C@@H]1O[C@]13[C@]1(O[C@H]1C[C@H]1C4=C(CC[C@@]13C)C(=O)OC4)[C@@H]2O [Triptolide] | 109 | 119 | 110 | – | – | – | – |
| O=c1cc(-c2ccc(O)cc2)oc2c([C@@H]3O[C@H](CO)[C@@H](O)[C@H](O)[C@H]3O)c(O)cc(O)c12 [Vitexin] | 102 | 115 | 108 | – | – | – | – |
| Cc1c2[n+](cc3cc4c(cc13)OCO4)CCc1cc3c(cc1-2)OCO3 [Worenine] | – | – | – | 101.91 | 92.89 | 125.56 | – |
| C/C1=C\CC(C)(C)/C=C/C(=O)/C(C)=C/CC1 [Zerumbone] | 102 | 113 | 108 | – | – | – | – |
| O=c1ccc2nc3ccc(O)cc3oc-2c1 [fluorophore A] | – | – | – | – | – | – | Sulfation rate: peak area of the sulfated metabolite detected by HPLC, hSULT1A1 (hSULT1A1 [3]): ++ (“++” and “+++” denote ranges from 10,000 to 50,000, and greater than 50,000, respectively); Sulfation rate: peak area of the sulfated metabolite detected by HPLC, hSULT1A2 (hSULT1A2 [4]): + (“+” shows the peak area of the sulfated metabolites of each fluorophore detected by HPLC, ranging from 0 to 10,000) |
| CC1=[N+]2C(=C(c3ccc(O)cc3)c3ccc(C)n3[B-]2(F)F)C=C1 [fluorophore C] | – | – | – | – | – | – | O-sulfation by hSULT1As (in words) (hSULT1As): could not be sulfated |
| N#CC(C#N)=C1C=C(/C=C/c2ccc(O)cc2)Oc2ccccc21 [fluorophore D] | – | – | – | – | – | – | Sulfation rate: peak area of the sulfated metabolite detected by HPLC, hSULT1A1 (hSULT1A1 [3]): +++ (“++” and “+++” denote ranges from 10,000 to 50,000, and greater than 50,000, respectively); Sulfation rate: peak area of the sulfated metabolite detected by HPLC, hSULT1A2 (hSULT1A2 [4]): ++ (“++” and “+++” denote ranges from 10,000 to 50,000, and greater than 50,000, respectively) |
| CC1(C)OC(=C(C#N)C#N)C(C#N)=C1/C=C/c1ccc2cc(O)ccc2c1 [fluorophore F] | – | – | – | – | – | – | Sulfation rate: peak area of the sulfated metabolite detected by HPLC, hSULT1A1 (hSULT1A1 [3]): +++ (“++” and “+++” denote ranges from 10,000 to 50,000, and greater than 50,000, respectively); Sulfation rate: peak area of the sulfated metabolite detected by HPLC, hSULT1A2 (hSULT1A2 [4]): + (“+” shows the peak area of the sulfated metabolites of each fluorophore detected by HPLC, ranging from 0 to 10,000) |
| CCCCN1C(=O)c2cccc3c4c(cc(c23)C1=O)C(C)(C)C(/C=C/c1ccc(O)cc1)=N4 [fluorophore G] | – | – | – | – | – | – | O-sulfation by hSULT1As (in words) (hSULT1As): could not be sulfated |
| CC(C)=CCc1cc(-c2oc3cc(O)cc(O)c3c(=O)c2O)ccc1O [iso-Licoflavonol] | 3.31 | 0.03 | 62.1 | – | – | – | – |
| O=C(/C=C/c1ccccc1)c1ccccc1 [trans-Chalcone] | – | – | – | 71.86 | 91.40 | 116.88 | – |
| Ginkgolic acid | – | – | – | 12.05 | 13.44 | 66.66 | – |
| Gomisin A | – | – | – | 129.03 | 97.44 | 122.78 | – |
| Hydroxysafflor yellow A | – | – | – | 97.09 | 100.46 | 99.76 | – |
| Myricitrin | – | – | – | 96.68 | 84.45 | 110.49 | – |
| Sennosides | – | – | – | 26.92 | 3.06 | 19.21 | – |
